From paper PMC11981937 (Nature, 2025)
Where “and” joins values, the source holds several entries; their conditions need not be identical. Equal entries are not always repeated. Entries after “also recorded” stand apart in the source; their conditions may differ. Where two headings read alike, the source gives them in different places.

Key:
SARS-CoV (FFM1 strain) = assay: microbe, parasite or virus in culture; type: cell-based; conditions: Severe acute respiratory syndrome coronavirus
Pg-CoV = assay: microbe, parasite or virus in culture; type: cell-based; conditions: Pangolin coronavirus
WIV-1 = assay: organism not typed; type: cell-based, bat WIV-1
MHV = MHV antiviral assay in HeLa cells (luciferase); type: cell-based, mouse hepatitis virus; conditions: Murine coronavirus, MHV (betaCoV)
SARS-CoV-2 (B1) = type: cell-based
[1] = target: T1, purified recombinant M protein (Severe acute respiratory syndrome coronavirus 2, UniProt P0DTC5); type: binding, SARS-CoV-2; conditions: 5 µM compound
T1 construct: SARS-CoV-2 M protein (1–222, UniProt: P0DTC5); ALFA-tag (C); C-tag (EPEA) (C); made in house; host or cells: Expi293F cells (Invitrogen), transient transfection of a pcDNA3.4 construct

SARS-CoV-2 B1 = type: in vivo, Syrian golden hamster; conditions: for Histopathology score, average / Histopathology score, median / Infectious virus in the lung (TCID50/mg), average Log 10 / Infectious virus in the lung (TCID50/mg), median Log 10 / Viral load (viral RNA) in the lung, average Log 10 / Viral load (viral RNA) in the lung, median Log 10: n=5; for Histopathology score, individual animal / Infectious virus in the lung (TCID50/mg), Log 10, individual animal / Infectious virus in the lung, individual animal / Viral load (viral RNA) in the lung, Copy number, individual animal / Viral load (viral RNA) in the lung, Log 10, individual animal: listed as 87009676-AAA
[2] = type: in vivo, Syrian golden hamster; conditions: pre-exposure; for % body weight change compared to day 0, Avg: day 4 vs day 0, group average; for % body weight change compared to day 0: day 4 vs day 0, individual animals
[3] = pre-exposure, 8.33 mg/kg BID, 8.33 mg/kg
[4] = pre-exposure, 25 mg/kg BID, 25 mg/kg
[5] = pre-exposure, 75 mg/kg BID, 75 mg/kg
[6] = pre-exposure, 8.33 mpk BID, 8.33 mg/kg
[7] = pre-exposure, 25 mpk BID, 25 mg/kg
[8] = pre-exposure, 75 mpk BID, 75 mg/kg

## C[C@H]1Cn2ncc(C(=O)Nc3cccc(C#N)c3)c2C(=O)N1c1ccc(C(F)(F)c2ccccc2)cc1 [JNJ-9676, (S)-N-(3-cyanophenyl)-5-(4-(difluoro(phenyl)methyl)phenyl)-6-methyl-4-oxo-4,5,6,7-tetrahydropyrazolo[1,5-a]pyrazine-3-carboxamide]
SARS-CoV (FFM1 strain); read-out: Median EC50
  EC50: 21 nM
SARS-CoV (FFM1 strain); read-out: Median EC90
  EC90: 45 nM
Pg-CoV
  EC50: 4 to 6 nM
WIV-1
  EC50: 4 to 6 nM
MHV; read-out: EC50 (column Median EC50; N=1, no median)
  EC50: 1300 nM
MHV; read-out: EC90 (column Median EC90; N=1, no median)
  EC90: 6300 nM
SARS-CoV-2 (B1)
  biogenesis of infectious progeny: inhibited completely
[1]
  compound recovery with M-protein:Fab B complex compared to M protein alone or M-protein:Fab E complex: significantly higher
[1]; 5 µM M protein
  compound recovery with M protein relative to buffer-only control: reproducible JNJ-9676 recovery
SARS-CoV-2 B1; Syrian golden hamster model
  lowest effective dose: 25 mg per kg BID
SARS-CoV-2 B1; pre-exposure, 8.33 mg/kg BID
  Histopathology score, average: 1.80
  Histopathology score, median: 2.00
  Infectious virus in the lung (TCID50/mg), average Log 10: 4.72 Log 10
  Infectious virus in the lung (TCID50/mg), median Log 10: 4.67 Log 10
  Viral load (viral RNA) in the lung, average Log 10: 4.56 Log 10
  Viral load (viral RNA) in the lung, median Log 10: 4.62 Log 10
SARS-CoV-2 B1; [3]
  Histopathology score, individual animal: 2 and 1.5
  Infectious virus in the lung (TCID50/mg), Log 10, individual animal: 5.82 Log 10 and 3.86 Log 10 and 4.99 Log 10 and 4.24 Log 10 and 4.67 Log 10
  Infectious virus in the lung, individual animal: 662125.31 TCID50/mg and 7237.18 TCID50/mg and 98821.18 TCID50/mg and 17573.17 TCID50/mg and 46447.60 TCID50/mg
  Viral load (viral RNA) in the lung, Copy number, individual animal: 2.23E+04 and 1.34E+05 and 8.49E+02 and 4.14E+04 and 6.27E+05
  Viral load (viral RNA) in the lung, Log 10, individual animal: 4.35 Log 10 and 5.13 Log 10 and 2.93 Log 10 and 4.62 Log 10 and 5.80 Log 10
SARS-CoV-2 B1; pre-exposure, 25 mg per kg BID
  cumulative histopathological lung score (in words): reduced to the baseline; also recorded: significantly reduced
SARS-CoV-2 B1; pre-exposure, 25 mg per kg BID, oral
  reduction of viral load in the lung: 3.5 log10[RNA copies per mg lung]
SARS-CoV-2 B1; pre-exposure, 25 mg/kg BID
  Histopathology score, average: 1.40
  Histopathology score, median: 1.50
  Infectious virus in the lung (TCID50/mg), average Log 10: 0.81 Log 10
  Infectious virus in the lung (TCID50/mg), median Log 10: 1.28 Log 10
  Viral load (viral RNA) in the lung, average Log 10: 9.46 Log 10
  Viral load (viral RNA) in the lung, median Log 10: 9.30 Log 10
SARS-CoV-2 B1; [4]
  Histopathology score, individual animal: 1.5 and 1
  Infectious virus in the lung (TCID50/mg), Log 10, individual animal: -2.00 Log 10 and 4.24 Log 10 and 2.52 Log 10 and 1.28 Log 10
  Infectious virus in the lung, individual animal: 0.01 TCID50/mg and 17417.65 TCID50/mg and 328.03 TCID50/mg and 19.08 TCID50/mg
  Viral load (viral RNA) in the lung, Copy number, individual animal: 7.91E+09 and 1.46E+09 and 1.22E+09 and 1.99E+09 and 7.25E+09
  Viral load (viral RNA) in the lung, Log 10, individual animal: 9.90 Log 10 and 9.16 Log 10 and 9.08 Log 10 and 9.30 Log 10 and 9.86 Log 10
SARS-CoV-2 B1; pre-exposure, 75 mg per kg BID
  cumulative histopathological lung score (in words): significantly reduced
SARS-CoV-2 B1; pre-exposure, 75 mg/kg BID
  Histopathology score, average: 1.20
  Histopathology score, median: 1.00
  Infectious virus in the lung (TCID50/mg), average Log 10: 1.08 Log 10
  Infectious virus in the lung (TCID50/mg), median Log 10: 2.38 Log 10
  Viral load (viral RNA) in the lung, average Log 10: 4.57 Log 10
  Viral load (viral RNA) in the lung, median Log 10: 3.13 Log 10
SARS-CoV-2 B1; [5]
  Histopathology score, individual animal: 1 and 1.5
  Infectious virus in the lung (TCID50/mg), Log 10, individual animal: -2.00 Log 10 and 3.24 Log 10 and 3.78 Log 10 and 2.38 Log 10
  Infectious virus in the lung, individual animal: 0.01 TCID50/mg and 1756.82 TCID50/mg and 5984.59 TCID50/mg and 240.02 TCID50/mg
  Viral load (viral RNA) in the lung, Copy number, individual animal: 4.93E+02 and 1.36E+03 and 1.66E+06 and 2.19E+08 and 2.75E+02
  Viral load (viral RNA) in the lung, Log 10, individual animal: 2.69 Log 10 and 3.13 Log 10 and 6.22 Log 10 and 8.34 Log 10 and 2.44 Log 10
SARS-CoV-2 B1; [6]
  Infectious virus in the lung, reduction relative to vehicle: 0.50 (p>0.05) log10 TCID50/mg lung and 0.50 (p>0.05) log10 TCID50/mg lung
  Viral load in the lung, reduction relative to vehicle: 2.01 (p>0.05) log10 copies/mg lung and 2.01 (p>0.05) log10 copies/mg lung
SARS-CoV-2 B1; [7]
  Infectious virus in the lung, reduction relative to vehicle: 4.41 (p=0.02) log10 TCID50/mg lung and 4.41 (p=0.02) log10 TCID50/mg lung
  Viral load in the lung, reduction relative to vehicle: 3.51 (p=0.0003 log10 copies/mg lung and 3.51 (p=0.0003) log10 copies/mg lung
SARS-CoV-2 B1; [8]
  Infectious virus in the lung, reduction relative to vehicle: 4.14 (p=0.03) log10 TCID50/mg lung and 4.14 (p=0.03) log10 TCID50/mg lung
  Viral load in the lung, reduction relative to vehicle: 3.01 (p=0.0019) log10 copies/mg lung and 3.01 (p=0.0019) log10 copies/mg lung
[2]; JNJ-9676 8.33 mpk BID
  % body weight change compared to day 0, Avg: 1.86%
[2]; JNJ-9676 8.33 mpk BID, 8.33 mg/kg
  % body weight change compared to day 0: 2.5% and 0.6% and 1.8% and 3% and 1.4%
[2]; JNJ-9676 25 mpk BID
  % body weight change compared to day 0, Avg: 5.08%
[2]; JNJ-9676 25 mpk BID, 25 mg/kg
  % body weight change compared to day 0: 3.8% and 4.1% and 7.5% and 7.1% and 2.9%
[2]; JNJ-9676 75 mpk BID
  % body weight change compared to day 0, Avg: 2.14%
